Assay results published in ChEMBL document CHEMBL2074063, “P-glycoprotein-mediated efflux of hydroxyrubicin, a neutral anthracycline derivative, in resistant K562 cells” (FEBS Lett, 1994).

Target: ABCB1 (P-glycoprotein) (Homo sapiens, UniProt P08183)
Assay: TP_TRANSPORTER: efflux in Doxorubicin resistant K562 cells

Chain of ABCB1 (P-glycoprotein) (P08183 whole entry): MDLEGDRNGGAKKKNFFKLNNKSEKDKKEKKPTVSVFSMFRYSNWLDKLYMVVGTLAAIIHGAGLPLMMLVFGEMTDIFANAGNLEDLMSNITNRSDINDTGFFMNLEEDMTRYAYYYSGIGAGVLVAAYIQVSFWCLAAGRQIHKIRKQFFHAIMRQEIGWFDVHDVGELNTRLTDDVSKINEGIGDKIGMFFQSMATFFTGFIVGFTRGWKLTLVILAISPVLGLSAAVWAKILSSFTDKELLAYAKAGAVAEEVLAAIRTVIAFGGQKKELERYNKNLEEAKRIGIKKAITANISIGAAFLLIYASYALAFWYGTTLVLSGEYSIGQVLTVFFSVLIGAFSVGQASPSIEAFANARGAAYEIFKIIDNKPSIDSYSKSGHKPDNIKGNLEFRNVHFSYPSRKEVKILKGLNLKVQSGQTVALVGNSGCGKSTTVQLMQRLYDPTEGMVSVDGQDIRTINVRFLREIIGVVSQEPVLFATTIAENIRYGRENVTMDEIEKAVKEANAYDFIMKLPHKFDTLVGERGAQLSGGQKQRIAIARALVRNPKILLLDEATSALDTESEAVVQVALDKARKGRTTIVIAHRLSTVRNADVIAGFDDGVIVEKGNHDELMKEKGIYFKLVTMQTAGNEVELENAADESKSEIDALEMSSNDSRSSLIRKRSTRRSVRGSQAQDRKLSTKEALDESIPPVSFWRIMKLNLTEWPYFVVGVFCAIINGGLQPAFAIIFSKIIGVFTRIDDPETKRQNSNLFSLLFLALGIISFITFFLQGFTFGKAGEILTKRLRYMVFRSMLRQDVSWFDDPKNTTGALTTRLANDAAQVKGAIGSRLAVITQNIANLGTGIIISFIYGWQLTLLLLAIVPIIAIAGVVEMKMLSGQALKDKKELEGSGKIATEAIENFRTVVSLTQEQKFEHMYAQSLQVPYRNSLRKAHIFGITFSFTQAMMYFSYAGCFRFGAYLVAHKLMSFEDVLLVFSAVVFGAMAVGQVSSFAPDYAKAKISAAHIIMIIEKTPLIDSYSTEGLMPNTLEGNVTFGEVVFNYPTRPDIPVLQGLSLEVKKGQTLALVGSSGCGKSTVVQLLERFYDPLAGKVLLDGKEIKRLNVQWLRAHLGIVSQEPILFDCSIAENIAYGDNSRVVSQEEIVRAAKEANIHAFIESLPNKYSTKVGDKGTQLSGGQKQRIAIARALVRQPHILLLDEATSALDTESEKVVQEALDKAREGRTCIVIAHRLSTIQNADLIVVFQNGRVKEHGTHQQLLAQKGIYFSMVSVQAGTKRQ

How did the Km turn out when `COc1cccc2c1C(=O)c1c(O)c3c(c(O)c1C2=O)C[C@@](O)(C(=O)CO)C[C@@H]3O[C@H]1C[C@H](O)[C@H](O)[C@H](C)O1` [HYDROXYRUBICIN] was run?
The Km was 2 µM.
